Key:
Assay in all cases: radiometric protein kinase assay
CLK4 = CLK4 (Mus musculus, UniProt O35493); conditions: for Residual enzyme activity CLK 4: 10 µM concentration, ± SEM
Method: (§1) Buffers. Buffer A: 10 mM MgCl2, 1 mM EGTA, 1 mM DTT, 25 mM Tris-HCl pH 7.5, 50 μg heparin/mL. Buffer C: 60 mM β-glycerophosphate, 15 mM p-nitrophenylphosphate, 25 mM MOPS (pH 7.2), 15 mM EGTA, 15 mM MgCl2, 1 mM DTT, 1 mM sodium vanadate, 1 mM phenylphosphate.
(§2) Kinase activities were assayed in buffer A or C at 30°C at a final ATP concentration of 15 μmol/L. Blank values were subtracted and activities were expressed in percent of the maximal activity, i.e. in the absence of inhibitors. Controls were performed with appropriate dilutions of DMSO.
(§3) Their kinase activity was assayed in buffer A, with 1 mg histone H1/mL, in the presence of 15 μmol/L [γ-33P] ATP (3,000 Ci/mmol; 10 mCi/mL) in a final volume of 30 μL. After 30 min incubation at 30°C, the reaction was stopped by harvesting onto P81 phosphocellulose supernatant (Whatman) using a FilterMate harvester (Packard) and washing in 1% phosphoric acid. Scintillation fluid was added and the radioactivity measured in a Packard counter.
(§4) All data points for construction of dose response curves were recorded in triplicate.

CLK2 = CLK2 (Mus musculus, UniProt O35491); conditions: for Residual enzyme activity CLK 2: 10 µM concentration, ± SEM
CDK5/p25 = biological target: T1, CDK5/p25 (Homo sapiens, UniProt Q00535); assay type: biochemical; conditions: for IC50: 15 μmol/L ATP
T1 construct: made in house

DYRK2 = biological target: T2, DYRK2 (Homo sapiens, UniProt Q92630); assay type: biochemical; conditions: for IC50: 15 μmol/L ATP, read-out: IC50 DYRK 2
T2 sequence (Q92630 1-601): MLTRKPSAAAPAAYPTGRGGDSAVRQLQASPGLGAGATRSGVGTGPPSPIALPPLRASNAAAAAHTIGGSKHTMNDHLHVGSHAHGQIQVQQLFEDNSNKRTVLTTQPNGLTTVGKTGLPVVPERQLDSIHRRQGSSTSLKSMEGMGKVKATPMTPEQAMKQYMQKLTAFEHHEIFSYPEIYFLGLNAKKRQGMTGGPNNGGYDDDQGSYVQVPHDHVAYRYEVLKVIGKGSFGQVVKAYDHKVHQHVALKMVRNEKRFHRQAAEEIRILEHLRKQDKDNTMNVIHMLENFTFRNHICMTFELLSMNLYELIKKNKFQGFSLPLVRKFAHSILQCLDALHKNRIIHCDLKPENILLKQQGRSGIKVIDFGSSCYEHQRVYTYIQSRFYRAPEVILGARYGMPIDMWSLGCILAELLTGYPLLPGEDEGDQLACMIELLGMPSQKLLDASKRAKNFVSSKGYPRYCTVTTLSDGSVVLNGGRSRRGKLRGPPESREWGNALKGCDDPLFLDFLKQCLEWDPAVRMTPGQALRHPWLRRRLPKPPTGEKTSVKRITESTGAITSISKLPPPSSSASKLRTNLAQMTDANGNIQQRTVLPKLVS

DYRK1A = DYRK1A (Homo sapiens, UniProt Q13627); assay type: biochemical; conditions: for IC50: 15 μmol/L ATP, read-out: IC50 DYRK 1A
GSK-3 = assay type: biochemical, porcine; conditions: for Residual enzyme activity GSK3: 10 µM concentration, ± SEM; for IC50: 15 μmol/L ATP, read-out: IC50 GSK3
CDK9/cyclin T = CDK9/cyclin T (Homo sapiens, UniProt P50750); conditions: for Residual enzyme activity CDK9/cyclin T: 10 µM concentration, ± SEM
Method: as §1, §2, §3, §4

CDK2/cyclin A = biological target: T3, CDK2/cyclin A (Homo sapiens, UniProt P24941); assay type: biochemical; conditions: for IC50: 15 μmol/L ATP, read-out: IC50 CDK2/cyclinA
T3 construct: made in house

CLK3 = CLK3 (Mus musculus, UniProt O35492); conditions: for Residual enzyme activity CLK 3: 10 µM concentration, ± SEM
DYRK3 = biological target: T4, DYRK3 (Homo sapiens, UniProt O43781); assay type: biochemical; conditions: for IC50: 15 μmol/L ATP, read-out: IC50 DYRK 3
T4 sequence (O43781 1-588): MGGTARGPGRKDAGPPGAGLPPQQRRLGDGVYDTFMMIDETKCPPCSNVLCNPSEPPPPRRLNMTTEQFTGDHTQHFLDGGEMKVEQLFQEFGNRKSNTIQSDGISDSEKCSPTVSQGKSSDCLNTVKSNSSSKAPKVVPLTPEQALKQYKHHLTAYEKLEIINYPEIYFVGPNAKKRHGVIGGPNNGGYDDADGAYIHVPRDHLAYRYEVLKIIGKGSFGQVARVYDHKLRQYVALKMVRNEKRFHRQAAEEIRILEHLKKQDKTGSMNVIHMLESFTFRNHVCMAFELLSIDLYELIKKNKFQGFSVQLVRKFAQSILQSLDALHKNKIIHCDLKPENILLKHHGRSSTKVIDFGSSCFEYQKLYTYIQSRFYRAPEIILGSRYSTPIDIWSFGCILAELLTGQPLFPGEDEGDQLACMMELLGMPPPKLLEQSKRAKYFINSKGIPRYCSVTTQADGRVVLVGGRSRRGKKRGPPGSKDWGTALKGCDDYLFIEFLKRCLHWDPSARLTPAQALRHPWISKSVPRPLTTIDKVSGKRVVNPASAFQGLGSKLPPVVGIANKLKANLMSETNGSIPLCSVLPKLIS

CLK1 = CLK1 (Mus musculus, UniProt P22518); conditions: for Residual enzyme activity CLK 1: 10 µM concentration, ± SEM
Method: Buffer A: 10 mM MgCl2, 1 mM EGTA, 1 mM DTT, 25 mM Tris-HCl pH 7.5, 50 μg heparin/mL. Buffer C: 60 mM β-glycerophosphate, 15 mM p-nitrophenylphosphate, 25 mM MOPS (pH 7.2), 15 mM EGTA, 15 mM MgCl2, 1 mM DTT, 1 mM sodium vanadate, 1 mM phenylphosphate.
Controls were performed with appropriate dilutions of DMSO. The GS-1, CKS, CDK7/9 tide and RS peptide substrates were obtained from Proteogenix (Oberhausbergen, France).
CDK1/cyclin B (M phase starfish oocytes, native), CDK2/cyclin A and CDK5/p25 (human, recombinant) were prepared as previously described [33]. […] ATP (3,000 Ci/mmol; 10 mCi/mL) in a final volume of 30 μL. After 30 min incubation at 30°C, the reaction was stopped by harvesting onto P81 phosphocellulose supernatant (Whatman) using a FilterMate harvester (Packard) and washing in 1% phosphoric acid. Scintillation fluid was added and the radioactivity measured in a Packard counter.
as §4

CK1δ/ε = assay type: biochemical, porcine; conditions: for Residual enzyme activity CK1: 10 µM concentration, ± SEM; for IC50: 15 μmol/L ATP, read-out: IC50 CK1
DYRK1B = DYRK1B (Homo sapiens, UniProt Q9Y463); assay type: biochemical; conditions: for IC50: 15 μmol/L ATP, read-out: IC50 DYRK 1B
CDK1/cyclin B = assay type: biochemical, starfish; conditions: for Residual enzyme activity CDK1/cyclin B: 10 µM concentration, ± SEM; for IC50: 15 μmol/L ATP

Sequence of CDK9/cyclin T (P50750 whole entry): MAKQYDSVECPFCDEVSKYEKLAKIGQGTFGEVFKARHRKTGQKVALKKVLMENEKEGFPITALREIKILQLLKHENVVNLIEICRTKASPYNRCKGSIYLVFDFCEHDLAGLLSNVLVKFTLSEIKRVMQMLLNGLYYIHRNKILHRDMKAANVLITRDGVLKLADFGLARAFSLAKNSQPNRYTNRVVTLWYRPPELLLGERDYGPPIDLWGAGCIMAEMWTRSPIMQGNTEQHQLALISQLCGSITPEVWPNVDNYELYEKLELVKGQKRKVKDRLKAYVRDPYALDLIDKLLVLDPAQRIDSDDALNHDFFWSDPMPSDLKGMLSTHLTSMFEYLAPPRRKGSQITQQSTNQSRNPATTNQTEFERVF
Sequence of CDK9/cyclin T (O60563 whole entry partner): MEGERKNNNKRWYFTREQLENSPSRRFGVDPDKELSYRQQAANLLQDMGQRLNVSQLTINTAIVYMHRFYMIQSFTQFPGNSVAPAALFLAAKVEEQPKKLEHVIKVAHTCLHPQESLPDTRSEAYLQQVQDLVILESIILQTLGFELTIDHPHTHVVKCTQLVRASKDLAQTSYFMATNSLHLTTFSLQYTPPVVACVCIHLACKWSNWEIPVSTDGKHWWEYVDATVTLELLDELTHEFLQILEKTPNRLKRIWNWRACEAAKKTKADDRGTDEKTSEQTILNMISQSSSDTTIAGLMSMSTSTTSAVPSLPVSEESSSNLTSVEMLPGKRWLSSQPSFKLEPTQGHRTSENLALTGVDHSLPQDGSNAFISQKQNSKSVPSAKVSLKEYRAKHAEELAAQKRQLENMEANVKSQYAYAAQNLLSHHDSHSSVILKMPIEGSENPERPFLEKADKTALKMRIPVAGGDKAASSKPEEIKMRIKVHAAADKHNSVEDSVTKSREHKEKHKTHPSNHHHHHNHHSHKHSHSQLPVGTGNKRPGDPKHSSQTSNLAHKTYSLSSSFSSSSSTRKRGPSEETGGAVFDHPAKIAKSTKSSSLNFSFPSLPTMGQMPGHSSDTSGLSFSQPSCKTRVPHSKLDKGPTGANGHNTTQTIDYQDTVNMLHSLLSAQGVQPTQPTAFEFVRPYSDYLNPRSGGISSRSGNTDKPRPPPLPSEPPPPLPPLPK
Sequence of DYRK1B (Q9Y463 whole entry): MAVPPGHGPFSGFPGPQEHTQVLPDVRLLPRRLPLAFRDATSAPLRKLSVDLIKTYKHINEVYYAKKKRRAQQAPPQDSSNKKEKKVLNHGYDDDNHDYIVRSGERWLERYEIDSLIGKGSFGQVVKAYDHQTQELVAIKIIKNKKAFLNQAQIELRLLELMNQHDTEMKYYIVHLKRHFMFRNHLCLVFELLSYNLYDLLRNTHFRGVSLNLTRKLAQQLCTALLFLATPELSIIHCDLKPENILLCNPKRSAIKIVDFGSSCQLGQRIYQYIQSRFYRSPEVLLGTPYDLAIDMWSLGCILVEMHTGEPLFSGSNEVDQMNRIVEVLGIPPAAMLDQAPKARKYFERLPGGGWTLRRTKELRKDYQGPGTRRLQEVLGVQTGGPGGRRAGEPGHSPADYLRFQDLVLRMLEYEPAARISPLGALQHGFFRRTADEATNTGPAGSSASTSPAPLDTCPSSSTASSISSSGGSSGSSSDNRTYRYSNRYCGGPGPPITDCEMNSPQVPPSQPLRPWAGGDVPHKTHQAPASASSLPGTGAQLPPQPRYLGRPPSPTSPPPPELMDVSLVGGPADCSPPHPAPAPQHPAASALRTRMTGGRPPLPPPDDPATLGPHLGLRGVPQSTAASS
Sequence of CLK3 (O35492 whole entry): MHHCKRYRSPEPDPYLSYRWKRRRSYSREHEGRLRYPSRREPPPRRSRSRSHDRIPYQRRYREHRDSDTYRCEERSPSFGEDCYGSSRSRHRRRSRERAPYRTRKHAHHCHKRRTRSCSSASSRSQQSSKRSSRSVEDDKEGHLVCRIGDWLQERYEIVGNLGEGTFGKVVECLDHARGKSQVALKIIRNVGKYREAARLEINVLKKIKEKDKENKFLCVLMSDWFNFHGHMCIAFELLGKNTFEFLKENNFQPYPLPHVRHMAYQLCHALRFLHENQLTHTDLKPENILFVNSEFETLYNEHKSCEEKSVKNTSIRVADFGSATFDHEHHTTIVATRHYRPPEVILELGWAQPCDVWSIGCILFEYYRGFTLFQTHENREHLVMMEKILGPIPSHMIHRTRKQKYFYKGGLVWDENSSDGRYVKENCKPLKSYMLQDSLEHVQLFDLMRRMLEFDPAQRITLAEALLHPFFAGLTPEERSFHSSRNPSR
Sequence of CLK4 (O35493 whole entry): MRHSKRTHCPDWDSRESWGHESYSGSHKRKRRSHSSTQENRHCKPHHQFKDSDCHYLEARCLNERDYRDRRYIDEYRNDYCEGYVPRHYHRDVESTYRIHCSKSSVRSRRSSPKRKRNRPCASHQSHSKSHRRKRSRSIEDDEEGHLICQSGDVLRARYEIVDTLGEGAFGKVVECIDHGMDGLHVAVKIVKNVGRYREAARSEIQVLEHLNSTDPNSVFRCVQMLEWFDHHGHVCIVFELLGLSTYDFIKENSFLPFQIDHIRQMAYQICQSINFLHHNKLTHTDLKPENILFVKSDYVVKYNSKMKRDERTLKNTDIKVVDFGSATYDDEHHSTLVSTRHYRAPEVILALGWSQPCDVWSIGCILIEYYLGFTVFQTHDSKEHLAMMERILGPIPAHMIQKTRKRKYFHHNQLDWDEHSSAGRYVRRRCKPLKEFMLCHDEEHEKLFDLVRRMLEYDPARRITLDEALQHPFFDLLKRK
T1 sequence (Q00535 whole entry): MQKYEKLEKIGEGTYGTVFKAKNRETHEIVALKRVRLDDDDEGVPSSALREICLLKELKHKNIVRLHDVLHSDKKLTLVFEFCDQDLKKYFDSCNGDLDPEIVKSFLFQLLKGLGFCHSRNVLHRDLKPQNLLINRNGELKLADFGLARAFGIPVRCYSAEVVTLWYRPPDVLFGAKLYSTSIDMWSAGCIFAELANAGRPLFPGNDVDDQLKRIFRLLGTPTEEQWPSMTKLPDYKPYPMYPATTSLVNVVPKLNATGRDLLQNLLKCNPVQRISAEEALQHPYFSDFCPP
T1 sequence (Q15078 99-307 partner limits assumed): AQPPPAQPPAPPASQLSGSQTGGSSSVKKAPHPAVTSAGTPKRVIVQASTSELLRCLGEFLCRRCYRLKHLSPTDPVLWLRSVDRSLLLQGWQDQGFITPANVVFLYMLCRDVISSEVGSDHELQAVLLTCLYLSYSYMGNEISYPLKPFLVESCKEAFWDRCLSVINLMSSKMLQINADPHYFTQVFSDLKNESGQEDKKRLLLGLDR
Sequence of CLK2 (O35491 whole entry): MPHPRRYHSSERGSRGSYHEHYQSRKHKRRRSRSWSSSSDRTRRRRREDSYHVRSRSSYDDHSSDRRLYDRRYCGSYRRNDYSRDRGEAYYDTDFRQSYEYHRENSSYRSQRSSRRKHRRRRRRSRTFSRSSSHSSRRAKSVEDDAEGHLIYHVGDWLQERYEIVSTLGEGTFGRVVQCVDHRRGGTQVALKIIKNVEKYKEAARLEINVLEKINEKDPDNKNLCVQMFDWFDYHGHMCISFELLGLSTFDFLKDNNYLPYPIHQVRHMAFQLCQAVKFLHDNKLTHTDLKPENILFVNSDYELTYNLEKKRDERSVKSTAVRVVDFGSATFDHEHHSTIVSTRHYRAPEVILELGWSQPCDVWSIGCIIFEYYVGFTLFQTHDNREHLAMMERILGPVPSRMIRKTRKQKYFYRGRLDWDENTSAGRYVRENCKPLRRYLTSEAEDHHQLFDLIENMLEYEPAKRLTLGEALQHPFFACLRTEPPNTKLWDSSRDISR
Sequence of CLK1 (P22518 whole entry): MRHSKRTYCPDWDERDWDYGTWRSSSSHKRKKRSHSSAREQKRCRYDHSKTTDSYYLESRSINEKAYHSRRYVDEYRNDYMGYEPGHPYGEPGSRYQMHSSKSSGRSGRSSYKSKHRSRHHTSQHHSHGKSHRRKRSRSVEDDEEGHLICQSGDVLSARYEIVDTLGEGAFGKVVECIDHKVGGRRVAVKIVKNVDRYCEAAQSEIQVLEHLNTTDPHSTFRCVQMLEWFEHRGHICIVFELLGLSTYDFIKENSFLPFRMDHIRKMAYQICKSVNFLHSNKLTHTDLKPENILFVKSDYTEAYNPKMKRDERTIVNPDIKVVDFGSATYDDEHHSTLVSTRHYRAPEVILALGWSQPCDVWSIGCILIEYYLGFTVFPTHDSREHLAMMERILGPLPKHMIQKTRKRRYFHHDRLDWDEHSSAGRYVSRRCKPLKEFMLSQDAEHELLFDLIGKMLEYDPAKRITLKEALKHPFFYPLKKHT

Structure (SMILES) | IC50 (CLK4) | IC50 (CLK2) | IC50 (CDK5/p25) | IC50 (DYRK1A) | Residual enzyme activity GSK3 (GSK-3) | IC50 (GSK-3) | IC50 (CDK9/cyclin T) | IC50 (CDK2/cyclin A) | IC50 (CLK3) | IC50 (DYRK3) | IC50 (CLK1) | Residual enzyme activity CK1 (CK1δ/ε) | IC50 (CK1δ/ε) | IC50 (DYRK1B) | Residual enzyme activity CDK1/cyclin B (CDK1/cyclin B) | IC50 (CDK1/cyclin B) | IC50 (DYRK2) | Residual enzyme activity CLK 4 (CLK4) | Residual enzyme activity CLK 2 (CLK2) | Residual enzyme activity CDK5/p25 (CDK5/p25; 10 µM concentration, ± SEM) | further results
O=C1NCc2ccc3c(-c4ccccc4)c[nH]c3c21 [8a, 3-Phenyl-6,7-dihydropyrrolo[3,4-g]indol-8(1H)-one] | 0.12 µM | 0.21 µM | > 10 µM | > 10 µM | 111±19% | > 10 µM | > 10 µM | > 10 µM | > 10 µM | > 10 µM | 0.046 µM | 91±4% | > 10 µM | 4.8 µM | 71±21% | > 10 µM | – | – | – | – | remaining activity at 10 µM (CLK4; read-out: Residual enzyme activity CLK 4): 2%; remaining activity at 10 µM (CLK2; read-out: Residual enzyme activity CLK 2): 14 ± 3%; remaining activity at 10 µM (CDK5/p25; 10 µM concentration, ± SEM, read-out: Residual enzyme activity CDK5/p25): 107 ± 20%; remaining activity at 10 µM (DYRK2; 10 µM concentration, ± SEM, read-out: Residual enzyme activity DYRK 2): 69 ± 15%; remaining activity at 10 µM (DYRK1A; 10 µM concentration, ± SEM, read-out: Residual enzyme activity DYRK 1A): 61 ± 12%; remaining activity at 10 µM (CDK9/cyclin T; read-out: Residual enzyme activity CDK9/cyclin T): 85 ± 5%; remaining activity at 10 µM (CDK2/cyclin A; 10 µM concentration, ± SEM, read-out: Residual enzyme activity CDK2/cyclin A): 101 ± 6%; remaining activity at 10 µM (CLK3; read-out: Residual enzyme activity CLK 3): 78 ± 9%; remaining activity at 10 µM (DYRK3; 10 µM concentration, ± SEM, read-out: Residual enzyme activity DYRK 3): 102 ± 13%; remaining activity at 10 µM (CLK1; read-out: Residual enzyme activity CLK 1): 8 ± 2%; remaining activity at 10 µM (DYRK1B; 10 µM concentration, ± SEM, read-out: Residual enzyme activity DYRK 1B): 51 ± 9%
O=C1NCc2ccc3c(-c4cccc(O)c4)c[nH]c3c21 [8g, 3-(3-Hydroxyphenyl)-6,7-dihydropyrrolo[3,4-g]indol-8(1H)-one] | 0.081 µM | 0.082 µM | > 10 µM | 0.74 µM | – | > 10 µM | 1.1 µM | > 10 µM | 1.7 µM | 2.2 µM | 0.044 µM | – | > 10 µM | 0.39 µM | – | > 10 µM | 0.59 µM | – | – | – | –
O=C1NCc2c(-c3cccc(F)c3)cc3c(-c4ccccc4)c[nH]c3c21 [17c, 5-(3-Fluorophenyl)-3-phenyl-6,7-dihydropyrrolo[3,4-g]indol-8(1H)-one] | 3.2 µM | > 10 µM | > 10 µM | > 10 µM | – | > 10 µM | > 10 µM | > 10 µM | > 10 µM | > 10 µM | 7.2 µM | – | > 10 µM | > 10 µM | – | > 10 µM | > 10 µM | – | – | – | –
CCc1c(-c2ccccc2)[nH]c2c3c(ccc12)CNC3=O [S18d] | – | – | – | – | 111±7% | – | – | – | – | – | – | 86±3% | – | – | 109±30% | – | – | 38±3% | 66±5% | 112±11% | Residual enzyme activity DYRK 2 (DYRK2; 10 µM concentration, ± SEM): 50±6%; Residual enzyme activity DYRK 1A (DYRK1A; 10 µM concentration, ± SEM): 74±14%; Residual enzyme activity CDK9/cyclin T (CDK9/cyclin T): 100±10%; Residual enzyme activity CDK2/cyclin A (CDK2/cyclin A; 10 µM concentration, ± SEM): 104±2%; Residual enzyme activity CLK 3 (CLK3): 110±16%; Residual enzyme activity DYRK 3 (DYRK3; 10 µM concentration, ± SEM): 87±5%; Residual enzyme activity CLK 1 (CLK1): 66±3%; Residual enzyme activity DYRK 1B (DYRK1B; 10 µM concentration, ± SEM): 65±8%
Cc1[nH]c2c3c(ccc2c1C)CNC3=O [S18b] | – | – | – | – | 135±18% | – | – | – | – | – | – | 75±3% | – | – | 93±26% | – | – | 48±6% | 63±17% | 111±18% | Residual enzyme activity DYRK 2 (DYRK2; 10 µM concentration, ± SEM): 61±4%; Residual enzyme activity DYRK 1A (DYRK1A; 10 µM concentration, ± SEM): 82±5%; Residual enzyme activity CDK9/cyclin T (CDK9/cyclin T): 104±7%; Residual enzyme activity CDK2/cyclin A (CDK2/cyclin A; 10 µM concentration, ± SEM): 103±2%; Residual enzyme activity CLK 3 (CLK3): 104±14%; Residual enzyme activity DYRK 3 (DYRK3; 10 µM concentration, ± SEM): 89±8%; Residual enzyme activity CLK 1 (CLK1): 92±8%; Residual enzyme activity DYRK 1B (DYRK1B; 10 µM concentration, ± SEM): 77±11%
CC(=O)Oc1cccc(-c2c[nH]c3c4c(ccc23)CNC4=O)c1 [8h, 3-(8-Oxo-1,6,7,8-tetrahydropyrrolo[3,4-g]indol-3-yl)phenyl acetate] | 0.13 µM | 0.32 µM | > 10 µM | 1.4 µM | – | > 10 µM | > 10 µM | > 10 µM | 3.3 µM | 6.1 µM | 0.17 µM | – | > 10 µM | 1.5 µM | – | > 10 µM | 2.4 µM | – | – | – | –
Cc1[nH]c2c3c(c(Br)cc2c1-c1ccccc1)CNC3=O [12b, 5-Bromo-2-methyl-3-phenyl-6,7-dihydropyrrolo[3,4-g]indol-8(1H)-one] | < 0.03 µM | 0.025 µM | > 10 µM | 0.11 µM | – | > 10 µM | > 10 µM | > 10 µM | 7.1 µM | 0.12 µM | 0.023 µM | – | > 10 µM | 0.11 µM | – | > 10 µM | 0.11 µM | – | – | – | –
Cc1c(-c2ccccc2)[nH]c2c3c(ccc12)CNC3=O [S18c] | – | – | – | – | 112±2% | – | – | – | – | – | – | 57±5% | – | – | 77±26% | – | – | 10±0% | 30±1% | 105±11% | Residual enzyme activity DYRK 2 (DYRK2; 10 µM concentration, ± SEM): 57±25%; Residual enzyme activity DYRK 1A (DYRK1A; 10 µM concentration, ± SEM): 58±7%; Residual enzyme activity CDK9/cyclin T (CDK9/cyclin T): 89±6%; Residual enzyme activity CDK2/cyclin A (CDK2/cyclin A; 10 µM concentration, ± SEM): 109±8%; Residual enzyme activity CLK 3 (CLK3): 93±9%; Residual enzyme activity DYRK 3 (DYRK3; 10 µM concentration, ± SEM): 91±17%; Residual enzyme activity CLK 1 (CLK1): 29±4%; Residual enzyme activity DYRK 1B (DYRK1B; 10 µM concentration, ± SEM): 50±7%
CCc1[nH]c2c3c(ccc2c1C)CNC3=O [S18a] | – | – | – | – | 97±3% | – | – | – | – | – | – | 50±6% | – | – | 94±13% | – | – | 7±2% | 31±4% | 100±9% | Residual enzyme activity DYRK 2 (DYRK2; 10 µM concentration, ± SEM): 42±12%; Residual enzyme activity DYRK 1A (DYRK1A; 10 µM concentration, ± SEM): 54±1%; Residual enzyme activity CDK9/cyclin T (CDK9/cyclin T): 93±5%; Residual enzyme activity CDK2/cyclin A (CDK2/cyclin A; 10 µM concentration, ± SEM): 99±8%; Residual enzyme activity CLK 3 (CLK3): 92±12%; Residual enzyme activity DYRK 3 (DYRK3; 10 µM concentration, ± SEM): 65±9%; Residual enzyme activity CLK 1 (CLK1): 20±2%; Residual enzyme activity DYRK 1B (DYRK1B; 10 µM concentration, ± SEM): 46±8%
Cc1cccc(-c2c[nH]c3c4c(ccc23)CNC4=O)c1 [8i, 3-(3-Methylphenyl)-6,7-dihydropyrrolo[3,4-g]indol-8(1H)-one] | 0.14 µM | 0.41 µM | > 10 µM | 2.6 µM | – | > 10 µM | > 10 µM | > 10 µM | 5.1 µM | > 10 µM | 0.061 µM | – | > 10 µM | 4.1 µM | – | > 10 µM | 3.1 µM | – | – | – | –
NC(=O)Cn1cc(-c2ccccc2)c2ccc3c(c21)C(=O)NC3 [15c, 2-(8-Oxo-3-phenyl-7,8-dihydropyrrolo[3,4-g]indol-1(6H)-yl)acetamide] | > 10 µM | > 10 µM | > 10 µM | > 10 µM | – | > 10 µM | > 10 µM | > 10 µM | > 10 µM | > 10 µM | > 10 µM | – | > 10 µM | > 10 µM | – | > 10 µM | > 10 µM | – | – | – | –
